Source: patent publication US5066658A, “Substituted hydroxyureas” (Ortho Pharmaceutical Corporation, priority 1990, dated 1991)

system: Arachidonate-Induced Bronchospasm (cyclooxygenase); assay: Pulmonary Mechanics Assay: arachidonate-induced bronchospasm without indomethacin (indicative of cyclooxygenase inhibition); type: in vivo, male Hartley guinea pigs; conditions: Cavia porcellus, IV dosing, 15 mg/kg, guinea pig, read-out: Inhibition of Arachidonate-Induced Bronchospasm (IV Dosing), % Inh. without Indomethacin
Procedure: (§1) The bronchodilating activity of the compounds was tested in a pulmonary mechanics assay. Basically, male Hartley guinea pigs (about 400-500 g) were anesthetized with urethane (2 g/kg, i.p.) and placed in a whole body Plethysmograph. Cannulations of a jugular vein and carotid artery were performed for compound administration and monitoring blood pressure, respectively. The trachea was cannulated for respiration at a constate volume via a miniature starling pump. A Validyne differential pressure transducer (±20 cm H2 O) sensed transpleural pressure via a 15 gauge needle inserted into the pleural cavity and a sidearm from the tracheal cannula. Tidal volume was sensed by another Validyne differential pressure transducer (±2 cm H2 O) from pressure changes inside the plethysmograph. An on-line Buxco pulmonary mechanics computer calculated air flow, dynamic lung compliance and lung resistance. The values were recorded on a print-out.
(§2) The guinea pigs were pretreated with succinyl choline (1.2 mg/kg, i.v.) to arrest spontaneous respiration. A control challenge of arachidonic acid (0.5-1.0 mg/kg, i.v.) was administered, and the animals were then dosed with the test compound by various routes. At least 10 minutes were allowed to expire between arachidonic acid challenges. A second challenge was given and compared to the control response. This comparison was indicative of cyclooxygenase inhibition. Indomethacin (10 mg/kg, i.v.) was administered immediately after the second challenge. A third challenge of a higher dose of arachidonic acid (5-10 mg/kg, i.v.) was given. This response was induced by SRS-A and compared to the responses elicited by a separate control group of animals. Activity was indicative of lipoxygenase inhibition. Propranolol (0.005 mg/kg. i.v.) may be given prior to the third challenge to enhance the response to SRS-A.
(§3) Bronchoconstriction induced by arachidonic acid with or without indomethacin was expressed as maximum percent change in dynamic lung compliance (Cdyn) and maximum percent increase in lung resistance (RL). Each guinea pig served as its own control for cyclooxygenase evaluation. The results are shown in Table I and are expressed as the percent inhibition of control.

Structure (SMILES) | inhibition in vivo at 15 mg/kg
CCCCCCCCN(O)C(=O)N(C)C [Example 7, N,N-Dimethyl-N'-octyl-N'-hydroxyurea] | 61%
CCCCCCCCCCCCN(O)C(=O)N(C)C [Example 13, N,N-Dimethyl-N.-dodecyl-N'-hydroxyurea] | 57%
CCCCCCCCCCN(C)C(=O)N(C)O [Example 17, N-Decyl-N,N'-dimethyl-N'-hydroxyurea] | 41%

system: Arachidonate-Induced Bronchospasm (lipoxygenase); assay: Pulmonary Mechanics Assay: arachidonate-induced bronchospasm with indomethacin (SRS-A response, indicative of lipoxygenase inhibition); type: in vivo, male Hartley guinea pigs; conditions: Cavia porcellus, IV dosing, 15 mg/kg, guinea pig, read-out: Inhibition of Arachidonate-Induced Bronchospasm (IV Dosing), % Inh. with Indomethacin
Procedure: as §1, §2, §3

Structure (SMILES) | inhibition in vivo at 15 mg/kg
CCCCCCCCN(O)C(=O)N(C)C [Example 7, N,N-Dimethyl-N'-octyl-N'-hydroxyurea] | 41%
CCCCCCCCCCCCN(O)C(=O)N(C)C [Example 13, N,N-Dimethyl-N.-dodecyl-N'-hydroxyurea] | 66%
CCCCCCCCCCN(C)C(=O)N(C)O [Example 17, N-Decyl-N,N'-dimethyl-N'-hydroxyurea] | 79%

biological target: T1, 5-lipoxygenase (Rattus norvegicus, UniProt P12527); assay: Inhibition of 5-lipoxygenase in cell-free homogenate of rat basophilic leukemia (RBL-1) cells; type: biochemical; conditions: 3 μM; RBL-1 cell-free homogenate; read-out: Inhibition of 5-Lipoxygenase, % Inh. @ 3 μM
T1 construct: The cell-free homogenate was prepared by sonication of the cells followed by centrifugation at 40,000 xg; endogenous in cells; host or cells: RBL-1 (rat basophilic leukemia) cells, 40,000 xg supernatant of the sonicate
T1 sequence (P12527 1-673): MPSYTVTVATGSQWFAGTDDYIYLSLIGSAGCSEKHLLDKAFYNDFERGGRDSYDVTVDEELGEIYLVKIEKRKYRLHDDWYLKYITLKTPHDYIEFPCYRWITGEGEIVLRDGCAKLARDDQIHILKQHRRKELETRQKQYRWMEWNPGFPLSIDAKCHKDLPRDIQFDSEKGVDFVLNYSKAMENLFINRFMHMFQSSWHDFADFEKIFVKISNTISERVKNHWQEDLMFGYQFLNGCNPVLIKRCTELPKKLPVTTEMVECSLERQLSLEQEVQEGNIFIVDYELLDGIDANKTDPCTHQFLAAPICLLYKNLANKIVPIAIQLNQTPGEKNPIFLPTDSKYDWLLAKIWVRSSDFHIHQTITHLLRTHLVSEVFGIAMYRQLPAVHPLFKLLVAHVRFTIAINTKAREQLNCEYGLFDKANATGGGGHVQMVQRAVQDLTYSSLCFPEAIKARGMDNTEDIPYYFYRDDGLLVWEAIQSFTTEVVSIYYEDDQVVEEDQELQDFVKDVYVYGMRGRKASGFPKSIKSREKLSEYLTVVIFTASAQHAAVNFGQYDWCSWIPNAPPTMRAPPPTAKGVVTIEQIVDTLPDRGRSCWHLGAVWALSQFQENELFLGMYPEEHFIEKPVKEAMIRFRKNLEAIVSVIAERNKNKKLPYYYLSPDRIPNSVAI
Procedure: The inhibition of 5-lipoxygenase was tested in a cell-free homogenate by the procedure of B. Jakschik et al., Biochem.Biophys.Res.Comm. 95, 103 (1980). Basically, rat basophilic leukemia cells (RBL-1 cells) were maintained in culture in a suitable medium, and were collected by centrifugation prior to assay. The cell-free homogenate was prepared by sonication of the cells followed by centrifugation at 40,000 xg. The CaCl2 dependent production of lipoxygenase products from ^14 C-arachidonic acid in the 40,000 xg supernatant was monitored in the presence of buffer (or other vehicle) or drug. Products were isolated by acidification and extraction, followed by thin layer chromatography. Radioactive areas corresponding to the authentic lipoxygenase products were quantitated by liquid scintillation counting. Data was reported as the IC50, the concentration causing 50% inhibition of the generation of lipoxygenase products. The results are shown it Table I as the percent inhibition at 3 μM or the amount of compound necessary to cause 50% inhibition.

Structure (SMILES) | inhibition at 3 µM
CCCCCCCCN(O)C(=O)N(C)C [Example 7, N,N-Dimethyl-N'-octyl-N'-hydroxyurea] | 77%
CCCCCCCCCCCCN(O)C(=O)N(C)C [Example 13, N,N-Dimethyl-N.-dodecyl-N'-hydroxyurea] | 95%
CCCCCCCCCCC1CN(O)C(=O)N1C (stereo not shown) [Example 28, 4-Decyl-1-hydroxy-3-methylimidazolidin-2-one] | 96%
COc1ccc(CCNC(=O)N(OC(C)=O)C(C)(C)C)cc1OC [Example 52, N-[2-(3,4-Dimethoxyphenyl)ethyl]-N'-acetoxy-N'-t-butylurea] | 9%

Further lines, results first:

inhibition at 3 µM | Structure (SMILES)
39% | CN(O)C(=O)NCCc1ccc(-c2ccccc2)cc1 [Example 31]
100% | CN(O)C(=O)NCCCCCCCOCc1ccccc1 [Example 39, N-[7-(Benzyloxy)heptyl]-N'hydroxy-N'-methylurea]
3% | COc1ccc(CC(C)(C)NC(=O)N(C)O)cc1OC [Example 56, N-[2-(3,4-Dimethoxyphenyl)-1,1-dimethylethyl]-N'hydroxy-N'-methylurea]
0% | COc1cc2c(cc1OC)CCN(C(=O)N(C)O)CC2 [Example 62, 7,8-Dimethoxy-N-hydroxy-N-methyl-1,2,4,5-tetrahydro-3H-3-benzazepine-3-carboxamide]
41% | COc1ccc(CCNC(=O)N(C)O)cc1OCc1ccccc1 [Example 69, N-[2-(3-Benzyloxy-4-methoxyphenyl)ethyl]-N'-hydroxy-N'-methylurea]

same assay, conditions: RBL-1 cell-free homogenate

IC50 | Structure (SMILES)
1800 nM | CCCCCCCCN(O)C(=O)N(C)C [Example 7, N,N-Dimethyl-N'-octyl-N'-hydroxyurea]
160 nM | CCCCCCCCCCN(C)C(=O)N(C)O [Example 17, N-Decyl-N,N'-dimethyl-N'-hydroxyurea]
280 nM | CCCCCCCCCCC1CN(O)C(=O)N1C (stereo not shown) [Example 28, 4-Decyl-1-hydroxy-3-methylimidazolidin-2-one]

system: Arachidonate-Induced Ear Edema; assay: Arachidonic Acid-Induced Ear Edema Assay; type: in vivo; conditions: topical, mouse ear
Procedure: The topical anti-inflammatory activity of a compound was determined by its ability to inhibit an experimentally-induced inflammation in the mouse ear. Basically, four milligrams of arachidonic acid in acetone were applied to the dorsal surface of one ear with a microliter pipette. The mice were sacrificed at various times after application of arachidonic acid (one-half to six hours). A section of each ear was removed with a 7 mm round punch and weighed on an electronic or analytical balance. The difference in weight between treated and untreated ears was determined. Compounds to be evaluated for anti-inflammatory activity can be incorporated directly into the irritant mixture or at various times prior to or after application of arachidonic acid.
The degree of anti-inflammatory activity is shown in Table I, and is expressed in terms of the percent inhibition of ear weight increase.

Structure (SMILES) | Inhibition of Arachidonate-Induced Ear Edema, ED50
CCCCCCCCN(O)C(=O)N(C)C [Example 7, N,N-Dimethyl-N'-octyl-N'-hydroxyurea] | 49 µg
CCCCCCCCCCN(C)C(=O)N(C)O [Example 17, N-Decyl-N,N'-dimethyl-N'-hydroxyurea] | 24 µg
CCCCCCCCCCC1CN(O)C(=O)N1C (stereo not shown) [Example 28, 4-Decyl-1-hydroxy-3-methylimidazolidin-2-one] | 134 µg
CN(O)C(=O)NCCCCCCCOCc1ccccc1 [Example 39, N-[7-(Benzyloxy)heptyl]-N'hydroxy-N'-methylurea] | 31 µg

same assay, conditions: topical; 100 μg topically, mouse ear; read-out: Inhibition of Arachidonate-Induced Ear Edema, % Inh. (μg topically)

Structure (SMILES) | inhibition in vivo at 0.1 mg
COc1ccc(CCNC(=O)N(OC(C)=O)C(C)(C)C)cc1OC [Example 52, N-[2-(3,4-Dimethoxyphenyl)ethyl]-N'-acetoxy-N'-t-butylurea] | 69%
COc1ccc(CC(C)(C)NC(=O)N(C)O)cc1OC [Example 56, N-[2-(3,4-Dimethoxyphenyl)-1,1-dimethylethyl]-N'hydroxy-N'-methylurea] | 38%

same assay, conditions: topical; 200 μg topically, mouse ear; read-out: Inhibition of Arachidonate-Induced Ear Edema, % Inh. (μg topically)

Structure (SMILES) | inhibition in vivo at 0.2 mg
CCCCCCCCCCCCN(O)C(=O)N(C)C [Example 13, N,N-Dimethyl-N.-dodecyl-N'-hydroxyurea] | 90%
CN(O)C(=O)NCCc1ccc(-c2ccccc2)cc1 [Example 31] | 40%
CN(O)C(=O)NCCCCCCCOCc1ccccc1 [Example 39, N-[7-(Benzyloxy)heptyl]-N'hydroxy-N'-methylurea] | 70%
COc1cc2c(cc1OC)CCN(C(=O)N(C)O)CC2 [Example 62, 7,8-Dimethoxy-N-hydroxy-N-methyl-1,2,4,5-tetrahydro-3H-3-benzazepine-3-carboxamide] | 35%
COc1ccc(CCNC(=O)N(C)O)cc1OCc1ccccc1 [Example 69, N-[2-(3-Benzyloxy-4-methoxyphenyl)ethyl]-N'-hydroxy-N'-methylurea] | 38%

same assay, conditions: topical; 400 μg topically, mouse ear; read-out: Inhibition of Arachidonate-Induced Ear Edema, % Inh. (μg topically)

Structure (SMILES) | inhibition in vivo at 0.4 mg
CCCCCCCCCCN(C)C(=O)N(C)O [Example 17, N-Decyl-N,N'-dimethyl-N'-hydroxyurea] | 88%
CCCCCCCCCCC1CN(O)C(=O)N1C (stereo not shown) [Example 28, 4-Decyl-1-hydroxy-3-methylimidazolidin-2-one] | 85%
